Data from PubChem BioAssay AID330 (DTP/NCI, 2004).
Values joined by “and” are separate entries in the source; they are usually repeats but may differ in a detail not shown here. Equal values may be shown once. Inconclusive results and toxic doses are left out. The calls were made as follows: active = survival T/C of 150% or more; inactive = T/C below 125% in these data.

Test system: P388 leukemia ip, CD2F1 mice, survival T/C
Experiment: NCI In Vivo Anticancer Drug Screen. Data for tumor model P388 Leukemia (intraperitoneal) in CD2F1 (CDF1) mice
Conditions: endpoint: median survival time, higher = longer survival
Method in brief: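 Mice carrying the transplanted tumor received test compound or vehicle. Survival was recorded in each group, and the value is the treated-group measurement divided by that of the vehicle-treated control group.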

[1] = dose: 50.0 mg/kg/injection, schedule: Q01DX005 (ip), vehicle: saline with Tween-80
[2] = dose: 100.0 mg/kg/injection, schedule: Q01DX005 (ip), vehicle: saline with Tween-80
[3] = dose: 200.0 mg/kg/injection, schedule: Q01DX005 (ip), vehicle: saline with Tween-80
[4] = dose: 60.0 mg/kg/injection, schedule: Q01DX005 (ip), vehicle: saline
[5] = dose: 120.0 mg/kg/injection, schedule: Q01DX005 (ip), vehicle: saline
[6] = dose: 60.0 mg/kg/injection, schedule: Q01DX005 (ip), vehicle: saline with Tween-80
[7] = dose: 120.0 mg/kg/injection, schedule: Q01DX005 (ip), vehicle: saline with Tween-80
[8] = dose: 240.0 mg/kg/injection, schedule: Q01DX005 (ip), vehicle: saline with Tween-80
[9] = dose: 50.0 mg/kg/injection, schedule: Q01DX009 (ip), vehicle: saline
[10] = dose: 100.0 mg/kg/injection, schedule: Q01DX009 (ip), vehicle: saline
[11] = dose: 200.0 mg/kg/injection, schedule: Q01DX009 (ip), vehicle: saline
[12] = dose: 50.0 mg/kg/injection, schedule: Q01DX009 (ip), vehicle: Klucel (hydroxypropylcellulose) (HPC)
[13] = dose: 100.0 mg/kg/injection, schedule: Q01DX009 (ip), vehicle: Klucel (hydroxypropylcellulose) (HPC)
[14] = dose: 200.0 mg/kg/injection, schedule: Q01DX009 (ip), vehicle: Klucel (hydroxypropylcellulose) (HPC)
[15] = dose: 25.0 mg/kg/injection, schedule: Q01DX009 (ip), vehicle: saline with Tween-80
[16] = dose: 50.0 mg/kg/injection, schedule: Q01DX009 (ip), vehicle: saline with Tween-80
[17] = dose: 100.0 mg/kg/injection, schedule: Q01DX009 (ip), vehicle: saline with Tween-80

Measured: T/C

CS(=O)(=O)CS(=O)(=O)OCCF
active: dose: 12.5 mg/kg/injection, schedule: Q01DX005 (ip), vehicle: saline 188 % of control | dose: 25.0 mg/kg/injection, schedule: Q01DX005 (ip), vehicle: saline 258 % of control and 285 % of control | dose: 50.0 mg/kg/injection, schedule: Q01DX005 (ip), vehicle: saline 285 % of control

CCOC(=O)COc1ccc(CC)cc1Cc1ccc(OC)cc1
inactive: [1] 97 % of control | [2] 111 % of control | [3] 111 % of control

COc1ccc(-n2c(C)nc3c(cnn3CN3CCCCC3)c2=O)cc1
inactive: dose: 60.0 mg/kg/injection, schedule: Q01DX005 (ip), vehicle: Klucel (hydroxypropylcellulose) (HPC) 102 % of control | dose: 120.0 mg/kg/injection, schedule: Q01DX005 (ip), vehicle: Klucel (hydroxypropylcellulose) (HPC) 102 % of control | dose: 240.0 mg/kg/injection, schedule: Q01DX005 (ip), vehicle: Klucel (hydroxypropylcellulose) (HPC) 94 % of control

CC[N+]12CC=C(CO)C1C(O)CC2 (stereo unspecified)
inactive: [4] 97 % of control | [5] 95 % of control | dose: 240.0 mg/kg/injection, schedule: Q01DX005 (ip), vehicle: saline 106 % of control

CC(=O)/C=C1/NC(C(=O)c2ccccc2)=CNC1c1ccccc1 (stereo unspecified)
inactive: [6] 102 % of control | [7] 91 % of control | [8] 95 % of control

CCOC(=O)C(=O)Cc1ccc(C(=N)N)cc1
inactive: [9] 101 % of control | [10] 96 % of control | [11] 88 % of control

c1cnc2c(c1)ccc1ncccc12
inactive: dose: 50.0 mg/kg/injection, schedule: Q01DX005 (ip), vehicle: Klucel (hydroxypropylcellulose) (HPC) 104 % of control | dose: 100.0 mg/kg/injection, schedule: Q01DX005 (ip), vehicle: Klucel (hydroxypropylcellulose) (HPC) 95 % of control | dose: 200.0 mg/kg/injection, schedule: Q01DX005 (ip), vehicle: Klucel (hydroxypropylcellulose) (HPC) 97 % of control

CCCCC1C(=O)N2C=C(c3ccccc3)c3ccccc3N2C1=O (stereo unspecified)
inactive: dose: 25.0 mg/kg/injection, schedule: Q01DX009 (ip), vehicle: Klucel (hydroxypropylcellulose) (HPC) 104 % of control | [12] 111 % of control | [13] 95 % of control | [14] 105 % of control | dose: 400.0 mg/kg/injection, schedule: Q01DX009 (ip), vehicle: Klucel (hydroxypropylcellulose) (HPC) 95 % of control

O=C(O)c1cc(C(=O)CCCC(=O)c2cc(C(=O)O)c(O)c3ccccc23)c2ccccc2c1O
inactive: dose: 12.5 mg/kg/injection, schedule: Q01DX009 (ip), vehicle: saline with Tween-80 100 % of control | [15] 100 % of control | [16] 87 % of control | [17] 93 % of control

C=C(C)c1c2ccccc2cc2cccc(Sc3ccccc3)c12
inactive: dose: 100.0 mg/kg/injection, schedule: Q04DX003 (ip), vehicle: saline with Tween-80 90 % of control | dose: 200.0 mg/kg/injection, schedule: Q04DX003 (ip), vehicle: saline with Tween-80 90 % of control | dose: 400.0 mg/kg/injection, schedule: Q04DX003 (ip), vehicle: saline with Tween-80 90 % of control

Cc1ccc(/C=C/C(=N/NC(=O)c2ccccc2)C(C)CN(C)C)cc1 (stereo unspecified)
inactive: [4] 99 % of control | [5] 111 % of control

CCOC(=O)c1nc(SC)n(C)c1C(=O)OCC
inactive: [6] 100 % of control | [7] 100 % of control | [8] 105 % of control

CCOC(=O)NC(=S)Nc1cn(C)cc1[N+](=O)[O-]
inactive: [1] 100 % of control | [2] 100 % of control | [3] 95 % of control

O=C1NC(=O)C2CCCc3cccc1c32 (stereo unspecified)
inactive: [16] 100 % of control | [17] 97 % of control | dose: 200.0 mg/kg/injection, schedule: Q01DX009 (ip), vehicle: saline with Tween-80 110 % of control

CN(C)c1ccc(C(=C2C=CC(=[N+](C)c3ccccc3)c3ccccc32)c2ccc(N(C)C)cc2)cc1
inactive: dose: 1.56 mg/kg/injection, schedule: Q01DX005 (ip), vehicle: saline with Tween-80 116 % of control

COc1ccc(CCN2C(=O)C(=O)N(c3cccc4c(N5C(=O)C(=O)N(CCc6ccc(OC)c(OC)c6)C5=O)cccc34)C2=O)cc1OC
inactive: [12] 95 % of control | [13] 93 % of control | [14] 96 % of control

C=C(C)c1nc(N)nc(-c2ccc(OC)cc2)n1
inactive: dose: 100.0 mg/kg/injection, schedule: Q04DX002 (ip), vehicle: Klucel (hydroxypropylcellulose) (HPC) 98 % of control | dose: 200.0 mg/kg/injection, schedule: Q04DX002 (ip), vehicle: Klucel (hydroxypropylcellulose) (HPC) 94 % of control | dose: 400.0 mg/kg/injection, schedule: Q04DX002 (ip), vehicle: Klucel (hydroxypropylcellulose) (HPC) 93 % of control

CC1OC(c2ccc3c(c2O)C(=O)c2ccc(CC(C)(O)CC(=O)O)cc2C3=O)CC(O)C1O (stereo unspecified)
inactive: dose: 12.5 mg/kg/injection, schedule: Q01DX005 (ip), vehicle: saline with Tween-80 90 % of control | dose: 25.0 mg/kg/injection, schedule: Q01DX005 (ip), vehicle: saline with Tween-80 93 % of control | [1] 96 % of control | dose: 100.0 mg/kg/injection, schedule: Q01DX005 (ip), vehicle: suspension in saline 110 % of control | dose: 200.0 mg/kg/injection, schedule: Q01DX005 (ip), vehicle: suspension in saline 101 % of control

C#C/C=C/CC1O[C@H](/C=C/C)C/C=C\CC1Cl (stereo partly specified)
inactive: dose: 7.8 mg/kg/injection, schedule: Q01DX005 (ip), vehicle: Klucel (hydroxypropylcellulose) (HPC) 94 % of control | dose: 15.62 mg/kg/injection, schedule: Q01DX005 (ip), vehicle: Klucel (hydroxypropylcellulose) (HPC) 99 % of control | dose: 31.25 mg/kg/injection, schedule: Q01DX005 (ip), vehicle: Klucel (hydroxypropylcellulose) (HPC) 96 % of control | dose: 62.5 mg/kg/injection, schedule: Q01DX005 (ip), vehicle: Klucel (hydroxypropylcellulose) (HPC) 88 % of control

COc1cccc(-c2nnc(-c3nc[nH]c3C)[nH]c2=O)c1
inactive: dose: 100.0 mg/kg/injection, schedule: Q04DX002 (ip), vehicle: saline with Tween-80 93 % of control | dose: 200.0 mg/kg/injection, schedule: Q04DX002 (ip), vehicle: saline with Tween-80 91 % of control | dose: 400.0 mg/kg/injection, schedule: Q04DX002 (ip), vehicle: saline with Tween-80 91 % of control

C1=CC2OC2CCCCCCCC1 (mixture of isomers)
inactive: [15] 106 % of control | [16] 107 % of control | [17] 109 % of control

CCC1(O)CC2CN(CCc3c([nH]c4ccccc34)C(C(=O)OC)(c3cc4c(cc3OC)N(C)C3C(O)(C(=O)NCCO)C(O)C5(CC)C=CCN6CCC43C65)C2)C1 (stereo unspecified)
active: dose: 0.2 mg/kg/injection, schedule: Q01DX009 (ip), vehicle: saline 150 % of control | dose: 0.4 mg/kg/injection, schedule: Q01DX009 (ip), vehicle: saline 167 % of control | dose: 0.6 mg/kg/injection, schedule: Q01DX009 (ip), vehicle: water 153 % of control | dose: 0.63 mg/kg/injection, schedule: Q04DX003 (ip), vehicle: saline 183 % of control | dose: 1.25 mg/kg/injection, schedule: Q04DX003 (ip), vehicle: saline 223 % of control | dose: 2.5 mg/kg/injection, schedule: Q04DX003 (ip), vehicle: saline 274 % of control
inactive: dose: 0.13 mg/kg/injection, schedule: Q01DX009 (ip), vehicle: water 105 % of control | dose: 0.22 mg/kg/injection, schedule: Q01DX009 (ip), vehicle: water 117 % of control | dose: 0.36 mg/kg/injection, schedule: Q01DX009 (ip), vehicle: water 122 % of control | dose: 0.8 mg/kg/injection, schedule: Q01DX009 (ip), vehicle: saline 96 % of control | dose: 1.0 mg/kg/injection, schedule: Q01DX009 (ip), vehicle: water 104 % of control

CC(=O)NCc1cc([N+](=O)[O-])ccc1O
inactive: [1] 101 % of control | [2] 94 % of control | [3] 99 % of control

COc1ccc2c(c1)no[n+]2[O-]
inactive: dose: 100.0 mg/kg/injection, schedule: Q04DX002 (ip), vehicle: saline 93 % of control | dose: 200.0 mg/kg/injection, schedule: Q04DX002 (ip), vehicle: saline 92 % of control | dose: 400.0 mg/kg/injection, schedule: Q04DX002 (ip), vehicle: saline 99 % of control

S=C([S-])N1CC[n+]2c(-c3ccccc3)csc21
inactive: [9] 101 % of control | [10] 100 % of control | [11] 91 % of control
